Source: PMC7039992, “The structural basis of fungal glucuronoyl esterase activity on natural substrates” (Nature Communications, 2020)
Several values for one entry are separate records, joined by “and”; a condition that tells them apart may be missing. Equal entries are not always repeated.

Key:
[1] = target: T1, dΔS270A CuGE (inactive truncated deglycosylated variant) (Cerrena unicolor, UniProt A0A0A7EQR3, S286A); test: Microscale thermophoresis (MST, LabelFree) binding of soluble ligands to dΔS270A
T1 construct: truncated CuGE (residues G79-T458) corresponding to the catalytic domain only; His6 (C); TEV protease cleavage site (C); made in house; host or cells: Pichia pastoris X-33
Description: (§1) Binding affinities for the soluble ligands U^m4XX^-OH (O-UXXR, MEGAZYMES), MeGlcA (4-O-methyl-D-glucuronic acid, MM46686, Carbosynth, Crompton UK), and MeMeGlcA (4-O-methyl-D-glucopyranosyluronate, purchased from Institute of Chemistry, Slovak Academy of Sciences, Bratislava, Slovakia) were measured by MST. The protein stocks, dΔS207A and ΔWT, were adjusted to 200 nM with 100 mM sodium acetate buffer pH 5 supplemented with 0.1% Pluronic F-127. Ligand stocks (100 mM U^m4XX^-OH, 43 mM MeGlcA and 250 mM MeMeGlcA) were prepared in 100 mM sodium acetate buffer pH 5, and for each ligand a series of 16 1:1 dilutions was prepared using the same buffer. For the measurement, each ligand dilution was mixed with one volume of protein, which led to a final protein concentration of 100 nM and final ligand concentrations in the mM to nM range. After 10 min incubation followed by centrifugation at 10,000 × g for 10 min, the samples were loaded into Monolith NT.LabelFree zero-background capillaries (NanoTemper Technologies). The MST experiment was performed with a Monolith NT.LabelFree instrument (NanoTemper Technologies) at 25 °C using 30% LED power and medium MST power. […] Final ligand concentration ranges used in the analysis of the MST signal were: U^m4XX^-OH 25 mM to 1.53 μM, MeGlcA 10.8 mM to 656 nM and MeMeGlcA 15.6 mM to 3.81 μM. For each ligand-binding curve, data from at least three independently pipetted measurements were included in the analysis with the MO. Affinity Analysis software (version 2.3, NanoTemper Technologies) using the signal from an MST-on time of 5 s.

[2] = system: CuGE catalytic domain crystals; test: Crystal soaking with ligands; format: binding, Cerrena unicolor; conditions: concentrations up to 0.5 M
Description: The deglycosylated CuGE variants dWT and dΔS207A were both screened for crystallization. However, all crystals obtained contain the catalytic domain only, as crystals formed in experiments with the full-length enzyme (dWT) turned out to be a proteolytic fragment lacking the CBM1 and linker region (Δ*dWT). […] Crystallization and ligand soak conditions are summarized in Supplementary Table 1. The vast majority of crystals formed at 4 °C and with high molecular weight polymers (SOKALAN CP7, PEG 10,000 or PEG 8000) as precipitants. Crystals were cryoprotected by brief soaks in either reservoir or ligand stock solutions supplemented with 26% glycerol and flash-frozen in liquid nitrogen. […] A refinement protocol using the maximum-likelihood target, real-space refinement, refinement of coordinates, individual isotropic temperature factors and translation-liberation-screw (TLS) refinement using TLS groups determined by the PHENIX software was applied. […]

[3] = target: T2, ΔWT CuGE (truncated, catalytic domain only) (Cerrena unicolor, UniProt A0A0A7EQR3); test: Microscale thermophoresis (MST, LabelFree) binding of soluble ligands to ΔWT; conditions: for Fnorm Average: MST
T2 construct: truncated CuGE (residues G79-T458) corresponding to the catalytic domain only; His6 (C); TEV protease cleavage site (C); made in house; host or cells: Pichia pastoris X-33
Description: as §1

[4] = Stability measurements: apparent thermal unfolding temperature (Ti) from intrinsic fluorescence, Tycho NT.6; format: physicochemical, Cerrena unicolor; conditions: 20 mM sodium acetate buffer pH 5
Description: In order to evaluate the stability of the different CuGE variants apparent unfolding temperatures (Ti) were monitored based on changes in intrinsic fluorescence using a Tycho NT.6 instrument (NanoTemper Technologies). The measurements were made in 20 mM sodium acetate buffer pH 5, protein concentrations in the range 0.07–0.3 mg mL^−1.

## COC(=O)[C@H]1OC(O)[C@H](O)[C@@H](O)[C@@H]1OC (stereo partly drawn) [MeMeGlcA, methyl ester of 4-O-methyl-D-glucuronic acid]
[1]
  Kd: > 10 mM
[1]; MST, ligand Conc 3.8147e-6 M
  Fnorm Average: 893.87
[1]; MST, ligand Conc 7.62939e-6 M
  Fnorm Average: 892.81
[1]; MST, ligand Conc 1.52588e-5 M
  Fnorm Average: 893.60
[1]; MST, ligand Conc 3.05176e-5 M
  Fnorm Average: 893.00
[1]; MST, ligand Conc 6.10352e-5 M
  Fnorm Average: 891.24
[1]; MST, ligand Conc 0.00012207 M
  Fnorm Average: 892.80
[1]; MST, ligand Conc 0.000244141 M
  Fnorm Average: 892.27
[1]; MST, ligand Conc 0.000488281 M
  Fnorm Average: 892.23
[1]; MST, ligand Conc 0.000976562 M
  Fnorm Average: 892.05
[1]; MST, ligand Conc 0.00195312 M
  Fnorm Average: 893.14
[1]; MST, ligand Conc 0.00390625 M
  Fnorm Average: 894.69
[1]; MST, ligand Conc 0.0078125 M
  Fnorm Average: 894.83
[1]; MST, ligand Conc 0.015625 M
  Fnorm Average: 899.63
[2]
  complex formation on crystal soak: did not result in a complex

## CO[C@H]1[C@H](O)[C@@H](O)[C@@H](O[C@H]2[C@H](O[C@@H]3CO[C@@H](O[C@H](CO)[C@H](O)[C@@H](O)CO)[C@H](O)[C@H]3O)OC[C@@H](O)[C@@H]2O)O[C@@H]1C(=O)O [U^m4XX^-OH, aldotetrauronic acid]
[1]; MST, ligand Conc 1.52588e-6 M
  Fnorm Average: 893.61
[1]; MST, ligand Conc 3.05176e-6 M
  Fnorm Average: 893.69
[1]; MST, ligand Conc 6.10352e-6 M
  Fnorm Average: 893.20
[1]; MST, ligand Conc 1.2207e-5 M
  Fnorm Average: 894.05
[1]; MST, ligand Conc 2.44141e-5 M
  Fnorm Average: 893.89
[1]; MST, ligand Conc 4.88281e-5 M
  Fnorm Average: 895.55
[1]; MST, ligand Conc 9.76563e-5 M
  Fnorm Average: 898.89
[1]; MST, ligand Conc 0.000195313 M
  Fnorm Average: 901.02
[1]; MST, ligand Conc 0.000390625 M
  Fnorm Average: 904.70
[1]; MST, ligand Conc 0.00078125 M
  Fnorm Average: 908.26
[1]; MST, ligand Conc 0.0015625 M
  Fnorm Average: 908.91
[1]; MST, ligand Conc 0.003125 M
  Fnorm Average: 910.47
[1]; MST, ligand Conc 0.00625 M
  Fnorm Average: 911.05
[1]; MST, ligand Conc 0.0125 M
  Fnorm Average: 912.09
[1]; MST, ligand Conc 0.025 M
  Fnorm Average: 909.72
[3]
  Kd: 5 mM
[3]; ligand Conc 1.52588e-6 M
  Fnorm Average: 893.29
[3]; ligand Conc 3.05176e-6 M
  Fnorm Average: 893.55
[3]; ligand Conc 6.10352e-6 M
  Fnorm Average: 893.63
[3]; ligand Conc 1.2207e-5 M
  Fnorm Average: 892.18
[3]; ligand Conc 2.44141e-5 M
  Fnorm Average: 892.73
[3]; ligand Conc 4.88281e-5 M
  Fnorm Average: 894.37
[3]; ligand Conc 9.76563e-5 M
  Fnorm Average: 893.73
[3]; ligand Conc 0.000195313 M
  Fnorm Average: 893.94
[3]; ligand Conc 0.000390625 M
  Fnorm Average: 894.62
[3]; ligand Conc 0.00078125 M
  Fnorm Average: 893.24
[3]; ligand Conc 0.0015625 M
  Fnorm Average: 896.88
[3]; ligand Conc 0.003125 M
  Fnorm Average: 900.40
[3]; ligand Conc 0.00625 M
  Fnorm Average: 905.36
[3]; ligand Conc 0.0125 M
  Fnorm Average: 907.85
[3]; ligand Conc 0.025 M
  Fnorm Average: 907.66

## CO[C@@H]([C@H](O)[C@@H](O)C=O)[C@H](O)C(=O)O [MeGlcA, 4-O-methyl-D-glucuronic acid]
[1]; MST
  dissociation constant, times higher compared to dΔS270A:U^m4XX^-OH: ~ 10 times
[1]; MST, ligand Conc 6.56128e-7 M
  Fnorm Average: 892.97
[1]; MST, ligand Conc 1.31226e-6 M
  Fnorm Average: 893.37
[1]; MST, ligand Conc 2.62451e-6 M
  Fnorm Average: 892.22
[1]; MST, ligand Conc 5.24902e-6 M
  Fnorm Average: 893.19
[1]; MST, ligand Conc 1.0498e-5 M
  Fnorm Average: 892.96
[1]; MST, ligand Conc 2.09961e-5 M
  Fnorm Average: 892.61
[1]; MST, ligand Conc 4.19922e-5 M
  Fnorm Average: 895.02
[1]; MST, ligand Conc 8.39844e-5 M
  Fnorm Average: 893.94
[1]; MST, ligand Conc 0.000167969 M
  Fnorm Average: 894.55
[1]; MST, ligand Conc 0.000335937 M
  Fnorm Average: 893.65
[1]; MST, ligand Conc 0.000671875 M
  Fnorm Average: 895.68
[1]; MST, ligand Conc 0.00134375 M
  Fnorm Average: 895.81
[1]; MST, ligand Conc 0.0026875 M
  Fnorm Average: 897.59
[1]; MST, ligand Conc 0.005375 M
  Fnorm Average: 898.85
[1]; MST, ligand Conc 0.01075 M
  Fnorm Average: 901.30

B1: dWT: enzymatically deglycosylated full-length WT CuGE (protein)
chain: QASAPQWGQCGGIGWTGPTACPSGWACQQLNAYYSQCLQGAAPAPARTTAAPPPPPATTAAPPPPTTSAPTGSSPVAGACGAIASTVPNYNNAKLPDPFTFANGTALRTKADWSCRRAEISALIQNYEAGTLPPKPPVVTASFSKSGNTGTLAITAGLSNSQTIKFSPTISYPSGTPPANGWPLIIAYEGGSIPIPAGVATLTYSNSDMAQQNSASSRGQGLFYQLYGSTHSASAMTAWVWGVSRIIDALEMTPTAQINTQRIGVTGCSRDGKGALMAGAFEERIALTIPQESGSGGDACWRLSKYEIDNGNQVQDAVEIVGENVWFSTNFNNYVQKLPTVPEDHHLLAAMVAPRAMISFENTDYLWLSPMSSFGCMTAAHTVWQGLGIADSHGFAQVGGHAHCAWPSSLTPQLNAFINRFLLDQSATTNVFTTNNQFGKVQWNAANWITWTTPTLT
modifications: N-glycosylation at N104 trimmed with Endo H; O-glycosylation in the linker region trimmed with alpha-1-2,3,6 mannosidase; left off: c-myc epitope, C-terminal, state not stated | His6, C-terminal, stat
notes: enzymatically deglycosylated full-length WT CuGE
[4]; individual replicates
  Ti, single measurements: 75.9 °C and 75.7 °C and 75.8 °C
[4]; protein 0.07–0.3 mg mL^−1, intrinsic fluorescence
  Ti, apparent thermal unfolding temperature (mean): 75.8 °C
